Laboratory results taken from ChEMBL document CHEMBL1201862, “PubChem BioAssay data set” (2004).
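A five-concentration, 48-hour dose response in 96-well plates underlies each endpoint, interpolated linearly between surrounding concentrations. Abbreviation: GI50, concentration required for 50% inhibition of growth.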 The source made the active and inactive calls. Cut-off read from the data, not from the text of the source: active = GI50 up to about 1.1 µM and inactive = higher.

Columns and labels:
Test in all cases: NCI-60 cell line screen, 48 h
COLO 205 = test system: COLO 205
DMS-273 = test system: DMS-273
HOP-62 = test system: HOP-62
KM12 = test system: KM12
LOX IMVI = test system: LOX IMVI
M14 = test system: M14
MOLT-4 = test system: MOLT-4
Malme-3M = test system: Malme-3M
NCI-H23 = test system: NCI-H23
OVCAR-8 = test system: OVCAR-8
RPMI-8226 = test system: RPMI-8226
SF-268 = test system: SF-268
SF-295 = test system: SF-295
SK-MEL-2 = test system: SK-MEL-2
SNB-75 = test system: SNB-75
U-251 = test system: U-251
UACC-62 = test system: UACC-62
NCI/ADR-RES = test system: NCI/ADR-RES
PC-3 = test system: PC-3
T47D = test system: T47D

| SMILES | GI50 (COLO 205) | GI50 (DMS-273) | GI50 (HOP-62) | GI50 (KM12) | GI50 (LOX IMVI) | GI50 (M14) | GI50 (MOLT-4) | GI50 (Malme-3M) | GI50 (NCI-H23) | GI50 (OVCAR-8) | GI50 (RPMI-8226) | GI50 (SF-268) | GI50 (SF-295) | GI50 (SK-MEL-2) | GI50 (SNB-75) | GI50 (U-251) | GI50 (UACC-62) | GI50 (NCI/ADR-RES) | GI50 (PC-3) | GI50 (T47D) |
| --- | --- | --- | --- | --- | --- | --- | --- | --- | --- | --- | --- | --- | --- | --- | --- | --- | --- | --- | --- | --- |
| CCO/C(CCn1[nH]c(=O)c(Cl)c(Cl)c1=O)=N\NC(=O)C(=O)NN | > 100 µM (inactive) | > 100 µM (inactive) | > 100 µM (inactive) | > 100 µM (inactive) | > 100 µM (inactive) | > 100 µM (inactive) | > 100 µM (inactive) | > 100 µM (inactive) | > 100 µM (inactive) | > 100 µM (inactive) | > 100 µM (inactive) | > 100 µM (inactive) | > 100 µM (inactive) | > 100 µM (inactive) | > 100 µM (inactive) | > 100 µM (inactive) | > 100 µM (inactive) | – | – | – |
| COc1ccc(C2[C@H]3C(=O)N(c4ccc(Cc5ccc(N6C(=O)[C@@H]7ON(c8ccccc8)C(c8ccc(OC)cc8)[C@@H]7C6=O)cc5)cc4)C(=O)[C@H]3ON2c2ccccc2)cc1 (stereo not given in full) | > 100 µM (inactive) | > 100 µM (inactive) | > 100 µM (inactive) | > 100 µM (inactive) | > 100 µM (inactive) | 23.1 µM (inactive) | > 100 µM (inactive) | 87.5 µM (inactive) | > 100 µM (inactive) | > 100 µM (inactive) | > 100 µM (inactive) | > 100 µM (inactive) | > 100 µM (inactive) | > 100 µM (inactive) | > 100 µM (inactive) | > 100 µM (inactive) | > 100 µM (inactive) | – | – | – |
| CCOC(=O)/C(=C\c1ccc[nH]1)C(=O)c1ccccc1 | > 100 µM (inactive) | 26.2 µM (inactive) | > 100 µM (inactive) | 65.9 µM (inactive) | 91.2 µM (inactive) | > 100 µM (inactive) | 43.3 µM (inactive) | > 100 µM (inactive) | > 100 µM (inactive) | > 100 µM (inactive) | 82 µM (inactive) | 91 µM (inactive) | > 100 µM (inactive) | 89.9 µM (inactive) | 13.9 µM (inactive) | > 100 µM (inactive) | 67.6 µM (inactive) | – | – | – |
| O=S(=O)(c1ccccc1)C1(C2(S(=O)(=O)c3ccccc3)CCN=N2)CCN=N1 (stereo not given) | > 100 µM (inactive) | > 100 µM (inactive) | – | > 100 µM (inactive) | > 100 µM (inactive) | > 100 µM (inactive) | > 100 µM (inactive) | > 100 µM (inactive) | > 100 µM (inactive) | > 100 µM (inactive) | > 100 µM (inactive) | > 100 µM (inactive) | > 100 µM (inactive) | > 100 µM (inactive) | > 100 µM (inactive) | > 100 µM (inactive) | – | – | – | – |
| Cc1cc2c(C)nn(Cc3ccccc3)c2c(C(N)=O)c1C | > 100 µM (inactive) | > 100 µM (inactive) | > 100 µM (inactive) | > 100 µM (inactive) | > 100 µM (inactive) | > 100 µM (inactive) | 62.1 µM (inactive) | > 100 µM (inactive) | > 100 µM (inactive) | > 100 µM (inactive) | > 100 µM (inactive) | > 100 µM (inactive) | > 100 µM (inactive) | > 100 µM (inactive) | 21.6 µM (inactive) | > 100 µM (inactive) | > 100 µM (inactive) | – | – | – |
| Cc1c(CNc2ccc(C(=O)NC(CC(=O)O)C(=O)O)cc2)ccc2nc(N)nc(N)c12 (stereo not given) | > 9.42 µM (inactive) | < 0.01 µM (active) | < 0.0103 µM (active) | 0.0743 µM (active) | < 0.01 µM (active) | < 0.215 µM (active) | < 0.0157 µM (active) | 31 µM (inactive) | < 0.018 µM (active) | < 0.01 µM (active) | < 0.0182 µM (active) | < 0.01 µM (active) | < 0.0106 µM (active) | > 100 µM (inactive) | 32.5 µM (inactive) | 0.0546 µM (active) | < 0.01 µM (active) | < 0.01 µM (active) | 13.4 µM (inactive) | > 100 µM (inactive) |
| COc1cc2c(cc1OC)NC(=O)NC(Cc1ccc3c(c1)OCO3)CC2 (stereo not given) | > 100 µM (inactive) | > 100 µM (inactive) | 51.5 µM (inactive) | > 100 µM (inactive) | > 100 µM (inactive) | > 100 µM (inactive) | > 100 µM (inactive) | > 100 µM (inactive) | > 100 µM (inactive) | > 100 µM (inactive) | 83.9 µM (inactive) | > 100 µM (inactive) | 84.5 µM (inactive) | > 100 µM (inactive) | 24 µM (inactive) | – | > 100 µM (inactive) | – | – | – |
| C/C(=C1/N=C(c2cc([N+](=O)[O-])ccc2Cl)N(c2cccc(C)c2)C1=O)c1cc2ccccc2oc1=O | 45.3 µM (inactive) | 80.7 µM (inactive) | > 100 µM (inactive) | 64 µM (inactive) | 16.7 µM (inactive) | > 100 µM (inactive) | 21.3 µM (inactive) | > 100 µM (inactive) | 35.2 µM (inactive) | > 100 µM (inactive) | 20.4 µM (inactive) | > 100 µM (inactive) | > 100 µM (inactive) | > 100 µM (inactive) | > 100 µM (inactive) | – | 21.8 µM (inactive) | – | – | – |
